Laboratory results: ChEMBL document CHEMBL5620386, “Synthesis, biological screening and in silico studies of new N-phenyl-4-(1,3-diaryl-1H-pyrazol-4-yl)thiazol-2-amine derivatives as potential antifungal and antitubercular agents” (Eur J Med Chem, 2023)
Values after ≈ are worked out from the molar mass of the structure shown. Values joined by “and” are separate entries in the source; they are usually repeats but may differ in a detail not shown here. Identical values can stand only once. Active and inactive are the calls of the source. The calls are words filed in the database; no cut-off is given here.

Key:
Bacillus subtilis [1] = experiment: Antimicrobial activity against Bacillus subtilis NCIM 2063 assessed as zone of inhibition by well diffusion method; type: functional
Bacillus subtilis [2] = experiment: Antimicrobial activity against Bacillus subtilis NCIM 2063 assessed as absence of growth by well diffusion method; type: functional
Staphylococcus aureus [3] = experiment: Antimicrobial activity against Staphylococcus aureus NCIM 2178 assessed as zone of inhibition by well diffusion method; type: functional
Proteus mirabilis [4] = experiment: Antimicrobial activity against Proteus mirabilis NCIM 2388 assessed as absence of growth by well diffusion method; type: functional
Staphylococcus aureus [5] = experiment: Antimicrobial activity against Staphylococcus aureus NCIM 2178 assessed as absence of growth by well diffusion method; type: functional
Proteus mirabilis [6] = experiment: Antimicrobial activity against Proteus mirabilis NCIM 2388 assessed as zone of inhibition by well diffusion method; type: functional
Aspergillus niger [7] = experiment: Antifungal activity against Aspergillus niger ATCC 504 assessed as absence of growth by well diffusion method; type: functional
Aspergillus niger [8] = experiment: Antifungal activity against Aspergillus niger ATCC 504 assessed as zone of inhibition by well diffusion method; type: functional
Escherichia coli = experiment: Antimicrobial activity against Escherichia coli NCIM 2574 assessed as zone of inhibition by well diffusion method; type: functional
[9] = Cytotoxicity against mouse 3T3-L1 cells assessed as cell viability at 12.5 ug/ml measured after 24 hrs by MTT assay relative to control; type: toxicity, cell-based; settings: at 12.5 µg/mL, read-out: Activity
[10] = system: Mycobacterium tuberculosis; experiment: Antitubercular activity Mycobacterium tuberculosis H37Rv strain ATCC No- 27294 assessed as prevention of color change from blue to pink using Almar Blue measured after 24 hrs by MABA assay; type: functional
[11] = Cytotoxicity against mouse 3T3-L1 cells assessed as cell viability at 25 ug/ml measured after 24 hrs by MTT assay relative to control; type: toxicity, cell-based; settings: at 25 µg/mL, read-out: Activity
Candida albicans = experiment: Antifungal activity against Candida albicans NCIM 3100 assessed as zone of inhibition by well diffusion method; type: functional

SMILES	inhibition zone (IZ) (Bacillus subtilis [1])	MIC (Bacillus subtilis [2])	inhibition zone (IZ) (Staphylococcus aureus [3])	MIC (Proteus mirabilis [4])	MIC (Staphylococcus aureus [5])	inhibition zone (IZ) (Proteus mirabilis [6])	MIC (Aspergillus niger [7])	inhibition zone (IZ) (Aspergillus niger [8])	inhibition zone (IZ) (Escherichia coli)	viability at 24 h, 12.5 ug/ml [9]	MIC [10]	viability at 24 h, 25 ug/ml [11]	inhibition zone (IZ) (Candida albicans)
CN[C@@H]1[C@H](O[C@H]2[C@H](O[C@H]3[C@H](O)[C@@H](O)[C@H](N=C(N)N)[C@@H](O)[C@@H]3N=C(N)N)O[C@@H](C)[C@]2(O)C=O)O[C@@H](CO)[C@H](O)[C@H]1O [STREPTOMYCIN]	18.5 mm	7.82 µg/mL and 13.4 µM	21 mm	7.82 µg/mL and 25.5 µM	7.82 µg/mL and 13.4 µM	21 mm	inactive						
Cc1ccc(Nc2nc(-c3cn(-c4ccc(F)cc4)nc3-c3ccc(F)cc3)cs2)cc1	18 mm	15.6 µg/mL and 35.2 µM	13 mm	125 µg/mL (≈ 281 µM)		15 mm	15.6 µg/mL and 35.2 µM	18.6 mm	inactive	99.5%	3.12 µg/mL and 7.03 µM	114%	10.2 mm
COc1ccc(Nc2nc(-c3cn(-c4ccc(F)cc4)nc3-c3ccc(F)cc3)cs2)cc1	12 mm	7.82 µg/mL (≈ 17 µM)	15 mm	125 µg/mL (≈ 271 µM)	125 µg/mL (≈ 271 µM)	14 mm	15.6 µg/mL and 34 µM	19 mm	inactive	113%	3.12 µg/mL and 6.78 µM	102%	11.6 mm
COc1ccc(Nc2nc(-c3cn(-c4ccccc4)nc3-c3ccc(Cl)cc3)cs2)cc1	14.8 mm	125 µg/mL (≈ 272 µM)	15 mm	125 µg/mL (≈ 272 µM)	125 µg/mL (≈ 272 µM)	14 mm	15.6 µg/mL and 32.5 µM	18.2 mm	inactive		1.6 µg/mL and 3.49 µM		10 mm
Cc1ccc(Nc2nc(-c3cn(-c4ccc(F)cc4)nc3-c3ccccc3)cs2)cc1	14.2 mm	125 µg/mL (≈ 293 µM)	17 mm	125 µg/mL (≈ 293 µM)	62.5 µg/mL and 147 µM	14.2 mm	15.6 µg/mL and 36.7 µM	18.6 mm	inactive	102%	3.12 µg/mL and 7.34 µM	96.2%	10.2 mm
OC(Cn1cncn1)(Cn1cncn1)c1ccc(F)cc1F [FLUCONAZOLE]		inactive		inactive	inactive		7.82 µg/mL and 25.5 µM						21.6 mm
Fc1ccc(-c2nn(-c3ccc(F)cc3)cc2-c2csc(Nc3ccc(Cl)cc3)n2)cc1	14 mm	125 µg/mL (≈ 269 µM)	14 mm	125 µg/mL (≈ 269 µM)	125 µg/mL (≈ 269 µM)	15 mm	15.6 µg/mL and 33.7 µM	19.6 mm	12 mm		25 µg/mL and 53.9 µM		10 mm
Fc1ccc(-c2nn(-c3ccc(F)cc3)cc2-c2csc(Nc3ccccc3)n2)cc1	14 mm	125 µg/mL (≈ 290 µM)	15 mm	125 µg/mL (≈ 290 µM)	125 µg/mL (≈ 290 µM)	15.2 mm	15.6 µg/mL and 36.3 µM	19.25 mm	inactive		25 µg/mL and 58.1 µM		12.2 mm
